Measurements published in the NIST ThermoML archive (doi:10.1016/j.jct.2015.07.028).

Conditions: Liquid, Closed cell (Static) method

O [water]
Conditions	vapor or sublimation pressure [kPa]
276.1 K	0.753
276.16 K	0.76
278.47 K	0.894
280.8 K	1.05
283.11 K	1.223
285.49 K	1.43
285.52 K	1.44
288.24 K	1.708
290.65 K	1.994
290.71 K	2.01
293.51 K	2.398
295.49 K	2.697
295.58 K	2.707
298.22 K	3.182
298.33 K	3.202
300.72 K	3.703
300.8 K	3.708
302.99 K	4.213
305.57 K	4.882
305.6 K	4.869
307.8 K	5.499
310.42 K	6.36
310.49 K	6.404
312.73 K	7.192
315.28 K	8.236
315.37 K	8.313
317.67 K	9.333
320.11 K	10.56
320.2 K	10.63
322.5 K	11.93
322.54 K	11.99
325.01 K	13.51
